Measurements published in ChEMBL document CHEMBL3627675, “Protective effects of the bioactive natural product N-trans-Caffeoyldopamine on hepatotoxicity induced by isoniazid and rifampicin” (2015).
Calls of active or inactive are those of the source. No cut-off for these calls is given here.

How the values were obtained:
[1] = tested on: Rattus norvegicus; experiment: Protective activity against isoniazid and rifampicin-induced hepatotoxicity in Wistar rat assessed as reduction of MDA level at 2.5 mg/kg, po (reference value: 30.5 +/- 7.8 nM/mg); format: functional
[2] = tested on: Rattus norvegicus; experiment: Protective activity against isoniazid and rifampicin-induced hepatotoxicity in Wistar rat assessed as reduction of serum ALT level at 2.5 mg/kg, po (reference value: 143.7 +/- 12.5 U); format: functional
[3] = tested on: Rattus norvegicus; experiment: Protective activity against isoniazid and rifampicin-induced hepatotoxicity in Wistar rat assessed as increase of SOD activity at 2.5 mg/kg, po (reference value: 31.4 +/- 8.3 U/mg); format: functional
[4] = tested on: Rattus norvegicus; experiment: Protective activity against isoniazid and rifampicin-induced hepatotoxicity in Wistar rat assessed as increase of GSH activity at 2.5 mg/kg, po (reference value: 29.4 +/- 11.4 uM/gram); format: functional
[5] = tested on: Rattus norvegicus; experiment: Protective activity against isoniazid and rifampicin-induced hepatotoxicity in Wistar rat assessed as reduction of serum AST level at 2.5 mg/kg, po (reference value: 168.5 +/- 14.7 U); format: functional
[6] = species: Rattus norvegicus; experiment: Protective activity against isoniazid and rifampicin-induced hepatotoxicity in Wistar rat by haematoxylin and eosin staining; format: functional, organism-based
[7] = species: Rattus norvegicus; experiment: Protective activity against isoniazid and rifampicin-induced hepatotoxicity in Wistar rat assessed as decrease of CYP2E1 mRNA expression in liver; format: functional, organism-based

Structure (SMILES)	Activity [1]	Activity [2]	Activity [3]	Activity [4]	Activity [5]	Activity [6]	Activity [7]
O=C(O)/C=C/c1ccc(O)c(O)c1 [CAFFEIC ACID]	23.5 nM/mg	102.9 U	48 U/mg	42.9 µmol/g	115.6 U	Active	Active
O=C(/C=C/c1ccc(O)c(O)c1)NCCc1ccc(O)c(O)c1	14.8 nM/mg	80.6 U	57 U/mg	49 µmol/g	86.4 U	Active	Active
